# Assay results from patent US10800806B2, “Sterol derivatives and use thereof for treating diseases involving transformed astrocyte cells or for treating malignant haemopathies” (BETA INNOV, priority 2012, dated 2020).
# Experiments:
# [1] = test system: cardiac cells; assay: Toxicity in vitro on primary cultures of cardiac cells; format: cell-based, human; settings: 30 μM, at least 30 days of treatment
# Description: These cells, of human origin, were obtained from ScienCell, USA (ref. 6300) as was the culture medium, which contains 10% (v/v) FCS. The doubling time is 72 h. • Skeletal muscle cells
# (§1) The same methods are used for both cases. For the activity, the anti-GBM potential of the test compounds is used, and the toxicity, is tested on normal cells of human origin maintained “in vitro”.
# (§2) The cells used are liver cells (ScienCell, USA, ref. 50200), kidney cells (ScienCell, USA, ref. 4120), skeletal muscle cells (ScienCell, USA, ref. 3500) and cardiac cells (ScienCell, USA, ref. 6300), of human origin, mentioned above (section II, A).
# [2] = test system: kidney cells; assay: Toxicity in vitro on primary cultures of kidney cells; format: cell-based, human; settings: 30 μM, at least 30 days of treatment
# Description: These cells, of human origin, were obtained from ScienCell, USA (ref. 4120) as was the culture medium (ref. 4101), which contains 10% (v/v) FCS. The doubling time is 96 h. • Cardiac cells
# as §1, §2
# [3] = test system: normal (non-cancerous) human astrocytes; assay: Toxicity in vitro on primary cultures of normal human astrocytes; format: cell-based; settings: 30 μM, after 30 days of treatment
# Description: The astrocyte cells of human origin used were obtained from ScienCell, USA (ref. 1800) as well as their culture medium, made up of basic medium containing 2% (v/v) FCS serum (ref. 0010), astrocyte growth proteins (AGS, ref. 1852) and a solution of penicillin/streptomycin (ref. 0503). The doubling time of these human astrocytes is 96 h. • Hepatic cells
# as §1
# The cells used are cells of human origin (ScienCell, USA, ref. 1800), mentioned above (section II, A).
# The astrocyte type is validated by the presence of GFAP, the standard marker of normal astrocytes (FIG. 11; magnification×200).
# [4] = test system: liver cells; assay: Toxicity in vitro on primary cultures of liver cells; format: cell-based, human; settings: 30 μM, at least 30 days of treatment
# Description: Of human origin, they were obtained from ScienCell, USA (ref. 50200) as was the culture medium (ref. 5201), which contains 10% (v/v) FCS. The doubling time of these cells is 24 h. • Renal cells
# as §1, §2
# [5] = test system: skeletal muscle cells; assay: Toxicity in vitro on primary cultures of skeletal muscle cells; format: cell-based, human; settings: 30 μM, at least 30 days of treatment
# Description: Of human origin, they were obtained from ScienCell, USA (ref. 3500) as was the culture medium (ref. 3501), which contains 10% (v/v) FCS. The doubling time for these cells is 72 h.
# as §1, §2
# [6] = test system: human glioblastoma lines (GBM, line U-87 MG); assay: Anti-GBM activity in vitro on cultures of human U87-MG cells, cell aggregates (CA); format: cell-based
# Description: Plastic flat-bottomed 96-well culture plates (NUNC, USA) treated for cell culture (Sigma-Aldrich, ref. 114754) are used; 1500 cells are seeded per well in 200 μl of culture medium. At the time of treatment, 100 μl of pure culture medium, 100 μl of culture medium containing ethanol, or liposomes, or 100 μl of culture medium containing the active ingredients are added per well; the final volume of the culture medium, after treatment, is therefore 300 μl for all the wells.
# The human glioblastoma lines (GBM, line U-87 MG) and their culture medium (Eagle's Minimum Essential Medium or EMEM) were obtained from ATCC (USA, ref. ATCC-HTB-14). Culture of the cells is started and maintained according to the recommendations of the ATCC. These lines are commonly used “in vitro” and “in vivo” for testing anti-GBM potential. The doubling time of these lines is 16 h.
# The active ingredients are either dissolved in absolute ethanol (AnalaR, NORMAPUR, VWR, France) or in the form of a liposomal solution, such as 10 μl of the stock solutions diluted in 990 μl and then added to the culture wells ([…] medium per well BI-GBM: 300 μl).
# When the active ingredients are in ethanolic solution, the culture medium contains […] ethanol (v/v).
# Briefly, the compounds to be tested, namely the compounds according to the invention (active ingredients) or 7β-OHCH—C3-ester (a derivative of 7beta-hydroxysterol esterified in position 3 with an oleate group, the synthesis of which is described by Rakotoarivelo et al. (18) and used as control), soya phosphatidylcholine (Sigma) as well as cholesteryl-3-sulphate (Sigma) are taken from their stock solutions prepared from dichloroethane in the case of the active ingredients and the 7β-OHCH—C3-ester, a chloroform:methanol mixture (9:1, v/v) in the case of phosphatidylcholine and chloroform in the case of cholesteryl-3-sulphate. The molar ratios are 1 M/0.1 M/0.25 M for phosphatidylcholine, cholesteryl-3-sulphate and the 7β-OHCH—C3-ester and the active ingredients respectively.
# After evaporation, a solution of PBS saline, without Ca^2+ and Mg^2+, pH7.2 (BioRad) is added to the dry compound. The volume of buffer and the mass of the products are adjusted so that 20 or 10 μl of liposomes added to 90 μl of culture medium gives the desired final concentrations. The liposomes are formed by the extrusion technique with Liposofast (Sodexim, SA Muizon, France). The solution is passed through polycarbonate filtration membranes (100 nm) 41 times. The liposomes are sterilized by filtration on […] Millipore membranes.
# For example, in the case of the cultures in 96-well plates and as a function of the magnification of the microscope used (objectives×10 or ×20, oculars×10), a photograph taken represents a field of view with a diameter equal to 1/5 of the diameter of a well. Therefore the total number of cells in a well is equal to […] the number of cells per photograph. This technique was compared with a standard technique (trypsinization of the cell layer, centrifugation of the cells, suspension of the cells in physiological saline solution and counting with a THOMA cell) in the case of the C6 cells. The results obtained are identical for both methods.
# The culture medium is withdrawn from each well and 50 μl of Laemmli buffer (0.1 ml of Tris, 0.8 ml of glycerol, 1.6 mL of 10% SDS, 8 ml q.s.f ultrapure water) is added per well.
# This test makes it possible to detect the cellular respiration, especially the mitochondrial respiration. The stock solution of tetrazolium salt MTT (3-(4,5-dimethylthiazol-2-yl)-2,5-diphenyl tetrazolium bromide, Sigma-Aldrich, USA, ref. M5655) is prepared with 10 mg of MIT/ml of PBS buffer (phosphate-buffered saline, SIGMA, ref. D 1408). This solution is added directly to the culture medium in each well; the final concentration of MTT is 25 μg/ml. The plate is then incubated at 37° C. for at least 1 h. […]
# [7] = test system: prostate cancer cells (ATCC-HTB-81); assay: Activity in vitro on prostate cancer cells; format: cell-based, human; settings: 30 μM, ethanolic form
# Description: They were obtained from ATCC (ref. ATCC-HTB-81). The culture medium is the same as that used for the liver cancer lines. The doubling time is 60 h. • Breast cancer cells
# The cancer cells used are from liver (ref. ATCC-HB-8065), prostate (ref. ATCC-HTB-81), breast (ref. ATCC-HTB-19) cancer cells, and from colon cancer cells (ECACC-HT29/219) of human origin, mentioned above.
structure (smiles),measurement,setting,value
"CC(C)CCCC(C)C1CCC2C3C(OC(=O)OC(C)(C)C)C=C4CC(OC(=O)C5COC(C)(C)O5)CCC4(C)C3CCC12C (stereo not shown) [Molecule 2.a, 7-((tert-butoxycarbonyl)oxy)-10,13-dimethyl-17-(6-methylheptan-2-yl)-2,3,4,7,8,9,10,11,12,13,14,15,16,17-tetradecahydro-1H-cyclopenta[a]phenanthren-3-yl 2,2-dimethyl-1,3-dioxolane-4-carboxylate]",toxicity,[1]; liposomal form,not toxic
same,toxicity,[2]; liposomal form,not toxic
same,toxicity,[3]; liposomal form,not toxic
same,toxicity,[4]; liposomal form,not toxic
same,toxicity,[5]; liposomal form,not toxic
same,presence of GBM cells (CA),"[6]; 15 μM, liposomal form, 15 days of treatment",zero
same,cellular respiration before cell death,[6]; liposomal form,cellular respiration increases before cell death
same,MTT/cell relative to the controls,"[6]; liposomal form, 8 days of treatment",140%
same,cell multiplication after replacing the medium with fresh drug-free medium,"[6]; liposomal form, medium replaced on the 13th day of treatment",no cell multiplication is observed
"CC(=O)OC1C=C2CC(OC(=O)C3COC(C)(C)O3)CCC2(C)C2CCC3(C)C(C(C)CCCC(C)C)CCC3C12 (stereo not shown) [Molecule 2.b, 7-acetoxy-10,13-dimethyl-17-(6-methylheptan-2-yl)-2,3,4,7,8,9,10,11,12,13,14,15,16,17-tetradecahydro-1H-cyclopenta[a]phenanthren-3-yl 2,2-dimethyl-1,3-dioxolane-4-carboxylate]",toxicity,[1]; ethanolic form,not toxic
same,toxicity,[2]; ethanolic form,not toxic
same,toxicity,[3]; ethanolic form,not toxic
same,toxicity,[4]; ethanolic form,not toxic
same,toxicity,[5]; ethanolic form,not toxic
same,effect on cellular division and respiration,[7],no effect
same,remaining GBM cells,"[6]; 30 μM, ethanolic form, even after removing the active ingredient",no GBM cell remains
same,cellular respiration before cell death,[6]; ethanolic form,cellular respiration increases before cell death
same,reduction of the level of proteins relative to the untreated control cells,[6]; ethanolic form,100%
same,cellular multiplication after replacement of the culture medium with fresh drug-free medium,[6]; medium replaced at 22 days,does not lead to any cellular multiplication
